According to PubChem BioAssay AID248 (DTP/NCI, 2004):
Where “and” joins values, the source holds several entries; their conditions need not be identical. Equal entries are not always repeated. Inconclusive results and toxic doses are left out. Rule as the data show it: active = T/C of 150% or more; inactive = T/C below 125%.

System: L1210 leukemia ip in BDF1 mice, survival T/C
Assay: NCI In Vivo Anticancer Drug Screen. Data for tumor model L1210 Leukemia (intraperitoneal) in B6D2F1 (BDF1) mice
Details: endpoint: mean survival time, higher = longer survival
Procedure, shortened: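 Each compound was tested against a transplantable tumor grown in mice. The endpoint was survival, with treated animals benchmarked against vehicle controls as a simple ratio.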

[1] = dose: 50.0 mg/kg/injection, schedule: Q01DX009 (ip), vehicle: other
[2] = dose: 100.0 mg/kg/injection, schedule: Q01DX009 (ip), vehicle: other
[3] = dose: 200.0 mg/kg/injection, schedule: Q01DX009 (ip), vehicle: other
[4] = dose: 100.0 mg/kg/injection, schedule: Q01DX009 (ip), vehicle: Klucel (hydroxypropylcellulose) (HPC)
[5] = dose: 200.0 mg/kg/injection, schedule: Q01DX009 (ip), vehicle: Klucel (hydroxypropylcellulose) (HPC)
[6] = dose: 400.0 mg/kg/injection, schedule: Q01DX009 (ip), vehicle: Klucel (hydroxypropylcellulose) (HPC)
[7] = dose: 25.0 mg/kg/injection, schedule: Q01DX009 (ip), vehicle: Klucel (hydroxypropylcellulose) (HPC)
[8] = dose: 50.0 mg/kg/injection, schedule: Q01DX009 (ip), vehicle: Klucel (hydroxypropylcellulose) (HPC)
[9] = dose: 100.0 mg/kg/injection, schedule: Q04DX003 (ip), vehicle: Klucel (hydroxypropylcellulose) (HPC)
[10] = dose: 200.0 mg/kg/injection, schedule: Q04DX003 (ip), vehicle: Klucel (hydroxypropylcellulose) (HPC)
[11] = dose: 50.0 mg/kg/injection, schedule: Q01DX001 (ip), vehicle: saline
[12] = dose: 100.0 mg/kg/injection, schedule: Q01DX001 (ip), vehicle: saline
[13] = dose: 200.0 mg/kg/injection, schedule: Q01DX001 (ip), vehicle: saline
[14] = dose: 400.0 mg/kg/injection, schedule: Q01DX001 (ip), vehicle: saline
[15] = dose: 100.0 mg/kg/injection, schedule: Q04DX002 (ip), vehicle: Klucel (hydroxypropylcellulose) (HPC)
[16] = dose: 50.0 mg/kg/injection, schedule: Q01DX009 (ip), vehicle: saline with Tween-80
[17] = dose: 100.0 mg/kg/injection, schedule: Q01DX009 (ip), vehicle: saline with Tween-80
[18] = dose: 200.0 mg/kg/injection, schedule: Q01DX009 (ip), vehicle: saline with Tween-80
[19] = dose: 300.0 mg/kg/injection, schedule: Q01DX009 (ip), vehicle: other

Measured: T/C

CCCOP(=S)(NCCCOC)OCCC
inactive: [1] 94 % of control | dose: 50.0 mg/kg/injection, schedule: Q04DX003 (ip), vehicle: other 95 % of control | dose: 100.0 mg/kg/injection, schedule: Q01DX001 (ip), vehicle: other 96 % of control | [2] 100 % of control | dose: 100.0 mg/kg/injection, schedule: Q04DX003 (ip), vehicle: other 95 % of control | dose: 200.0 mg/kg/injection, schedule: Q01DX001 (ip), vehicle: other 102 % of control | [3] 94 % of control | dose: 200.0 mg/kg/injection, schedule: Q04DX003 (ip), vehicle: other 97 % of control

COC(=O)c1cc(C)c(I)c([N+](=O)[O-])c1
inactive: [4] 109 % of control | [5] 102 % of control | [6] 98 % of control

CC1CN=C(c2ccc(NC(=O)Nc3ccc(C4=NCC(C)N4)cc3)cc2)N1 (configuration not stated)
inactive: dose: 0.62 mg/kg/injection, schedule: Q01DX Z (ip), vehicle: saline 109 % of control | dose: 1.25 mg/kg/injection, schedule: Q01DX Z (ip), vehicle: saline 114 % of control | dose: 2.5 mg/kg/injection, schedule: Q01DX Z (ip), vehicle: saline 118 % of control | dose: 5.0 mg/kg/injection, schedule: Q01DX Z (ip), vehicle: saline 111 % of control

NC(Cc1ccc(O)cc1)C(=O)N/N=C/c1ccc(N(CCCl)CCCl)cc1 (configuration not stated)
inactive: [7] 101 % of control | [8] 113 % of control | [4] 106 % of control | [9] 107 % of control | [10] 102 % of control

CCCCNC(=O)OC
inactive: [8] 94 % of control | [4] 97 % of control | [9] 98 % of control | [5] 102 % of control | [10] 91 % of control

CCOC(=O)c1cccc(N(CCO)CCO)c1
inactive: [11] 103 % of control | [12] 97 % of control | [13] 103 % of control | [14] 103 % of control

CCc1oc2cc([N+](=O)[O-])ccc2c1C(OC(C)=O)OC(C)=O
inactive: [4] 100 % of control | [5] 105 % of control | [6] 96 % of control

C(=N\Nc1nnc(N/N=C/c2cccc3ccccc23)c2ccccc12)/c1cccc2ccccc12
inactive: [11] 92 % of control | [12] 92 % of control | [13] 92 % of control | [14] 92 % of control

Cc1c(Cl)cc(C(C)C)c(O)c1CN1CCCCC1
inactive: dose: 222.0 mg/kg/injection, schedule: Q01DX Z (ip), vehicle: saline 92 % of control | dose: 333.0 mg/kg/injection, schedule: Q01DX Z (ip), vehicle: saline 91 % of control | dose: 500.0 mg/kg/injection, schedule: Q01DX Z (ip), vehicle: saline 91 % of control

NCC12CC3CC(CC(C3)C1)C2
inactive: [7] 107 % of control | dose: 25.0 mg/kg/injection, schedule: Q04DX002 (ip), vehicle: Klucel (hydroxypropylcellulose) (HPC) 111 % of control | [8] 93 % of control | dose: 50.0 mg/kg/injection, schedule: Q04DX002 (ip), vehicle: Klucel (hydroxypropylcellulose) (HPC) 107 % of control | [4] 90 % of control | [15] 96 % of control and 104 % of control

NC(N)=NC(N)=NC1CCCCC1
inactive: dose: 50.0 mg/kg/injection, schedule: Q01DX009 (ip), vehicle: saline 89 % of control | dose: 100.0 mg/kg/injection, schedule: Q01DX009 (ip), vehicle: saline 102 % of control | dose: 200.0 mg/kg/injection, schedule: Q01DX009 (ip), vehicle: saline 108 % of control

CCCC(CC)C(=O)OCCCSCCCOC(=O)C(CC)CCC (configuration not stated)
inactive: dose: 222.0 mg/kg/injection, schedule: Q01DX Z (ip), vehicle: methylcellulose (MC) 92 % of control | dose: 333.0 mg/kg/injection, schedule: Q01DX Z (ip), vehicle: methylcellulose (MC) 94 % of control | dose: 500.0 mg/kg/injection, schedule: Q01DX Z (ip), vehicle: methylcellulose (MC) 87 % of control

CCOP(=S)(OCC)SC(C)c1ccccc1 (configuration not stated)
inactive: [16] 95 % of control | [17] 91 % of control | [18] 100 % of control

CC(CN(CCNc1ccccc1)c1ccccc1)c1ccccc1 (configuration not stated)
inactive: dose: 25.0 mg/kg/injection, schedule: Q01DX009 (ip), vehicle: other 102 % of control | [1] 105 % of control | [2] 100 % of control | dose: 100.0 mg/kg/injection, schedule: Q04DX003 (ip), vehicle: saline 100 % of control | [3] 104 % of control | dose: 200.0 mg/kg/injection, schedule: Q04DX003 (ip), vehicle: saline 92 % of control | [19] 96 % of control | dose: 400.0 mg/kg/injection, schedule: Q04DX003 (ip), vehicle: saline 86 % of control

CCC/C(C)=N\O
inactive: dose: 100.0 mg/kg/injection, schedule: Q04DX003 (ip), vehicle: saline with Tween-80 102 % of control | dose: 200.0 mg/kg/injection, schedule: Q04DX003 (ip), vehicle: saline with Tween-80 111 % of control | dose: 400.0 mg/kg/injection, schedule: Q04DX003 (ip), vehicle: saline with Tween-80 100 % of control

NC(=O)CC(NC(=O)C(F)(F)F)C(=O)O (configuration not stated)
inactive: dose: 100.0 mg/kg/injection, schedule: Q04DX003 (ip), vehicle: carboxymethylcellulose (CMC) 98 % of control | dose: 200.0 mg/kg/injection, schedule: Q04DX003 (ip), vehicle: carboxymethylcellulose (CMC) 98 % of control | dose: 400.0 mg/kg/injection, schedule: Q04DX003 (ip), vehicle: carboxymethylcellulose (CMC) 88 % of control

C[n+]1c(O)c(C(=O)CCl)n2cc([N+](=O)[O-])ccc21
inactive: [12] 100 % of control | [13] 92 % of control | [14] 101 % of control

COCC1OC1(C(=O)c1ccccc1Cl)c1ccccc1Cl (configuration not stated)
inactive: [12] 107 % of control | [13] 100 % of control | [14] 96 % of control

Clc1ccccc1C=NCC1CCC(CN=Cc2ccccc2Cl)CC1 (configuration not stated)
inactive: [16] 92 % of control and 100 % of control | dose: 100.0 mg/kg/injection, schedule: Q01DX001 (ip), vehicle: saline with Tween-80 106 % of control | [17] 92 % of control | dose: 100.0 mg/kg/injection, schedule: Q04DX002 (ip), vehicle: saline with Tween-80 104 % of control and 88 % of control | dose: 200.0 mg/kg/injection, schedule: Q01DX001 (ip), vehicle: saline with Tween-80 93 % of control | [18] 90 % of control | dose: 200.0 mg/kg/injection, schedule: Q04DX002 (ip), vehicle: saline with Tween-80 100 % of control | dose: 400.0 mg/kg/injection, schedule: Q01DX001 (ip), vehicle: saline with Tween-80 98 % of control | dose: 400.0 mg/kg/injection, schedule: Q04DX002 (ip), vehicle: saline with Tween-80 89 % of control

c1ccc2c(-c3c4ccccc4cc4ccccc34)c3ccccc3cc2c1
inactive: [15] 91 % of control | dose: 200.0 mg/kg/injection, schedule: Q04DX002 (ip), vehicle: Klucel (hydroxypropylcellulose) (HPC) 105 % of control | dose: 400.0 mg/kg/injection, schedule: Q04DX002 (ip), vehicle: Klucel (hydroxypropylcellulose) (HPC) 91 % of control

ClCCCCCCCCCCc1ccccc1
inactive: dose: 100.0 mg/kg/injection, schedule: Q01DX009 (ip), vehicle: saline sonified 91 % of control | dose: 100.0 mg/kg/injection, schedule: Q04DX003 (ip), vehicle: saline sonified 96 % of control | dose: 200.0 mg/kg/injection, schedule: Q01DX009 (ip), vehicle: saline sonified 93 % of control | dose: 200.0 mg/kg/injection, schedule: Q04DX003 (ip), vehicle: saline sonified 102 % of control | dose: 400.0 mg/kg/injection, schedule: Q01DX009 (ip), vehicle: saline sonified 89 % of control | dose: 400.0 mg/kg/injection, schedule: Q04DX003 (ip), vehicle: saline sonified 98 % of control

CCCCCCCCCCCCCCCCCC(=O)OCCOC(=O)CCCCCCCCCCCCCCCCC
inactive: dose: 75.0 mg/kg/injection, schedule: Q01DX009 (ip), vehicle: other 103 % of control | dose: 100.0 mg/kg/injection, schedule: Q04DX002 (ip), vehicle: other 88 % of control | dose: 150.0 mg/kg/injection, schedule: Q01DX009 (ip), vehicle: other 96 % of control | dose: 200.0 mg/kg/injection, schedule: Q04DX002 (ip), vehicle: other 98 % of control | [19] 111 % of control
